# Measured values as given in patent US9889105B2, “In vivo method for treating, inhibiting, and/or prophylaxis of cancer, such as pancreatic cancer” (U.S. Department of Veterans Affairs, priority 2010, dated 2018).
# Legend:
# Panc-1 cells [1] = test: Click-it EdU microplate proliferation assay; format: cell-based, human; conditions: for potency in proliferation assay relative to crude crocetin: Panc-1, 48-72 hours, versus CC; for inhibiting proliferation: Panc-1 cells
# Protocol: (§1) Pancreatic cancer cells were plated at desired density onto 96-well corning tissue culture plates. After 24 hours, cells were treated for 72 hours with different concentrations (1-50 μM) of purified crocetin and crude/commercial crocetin. Cells were labelled with Click-it EdU and were fixed. Then fixed cells were incubated with anti-Oregon Green antibody conjugated to horseradish peroxidase and measured flurescent product (excitation/emission˜568/585).
# […] We have also used higher doses (25, 50 and 100 μM) in this experiment and it needs about 50-100 concentration of CC for inhibition of proliferation and increase of apoptosis at the level of 1 and 10 μm of PC. Treated cells were then labeled with Brdu and cells were assayed by Invitrogen Click-it Edu fluorimetric microplate proliferation kit and apoptosis assay kit.
# Panc-1 cells [2] = test: Apoptosis assay (apoptosis kit, Annexin V-FITC flow cytometry and fluorescence microscopy); format: cell-based, human; conditions: for potency in apoptosis assay relative to crude crocetin: Panc-1, 48-72 hours, versus CC; for stimulating apoptosis: Panc-1 cells
# Protocol: (§2) FITC Annexin V and PI for flow cytometry provide a rapid and convenient assay for apoptosis. Treated and control cells were incubated with annexin V conjugate and propidium iodide (PI). Then cells were deposited onto slides for fluorescence microscopy. Cells were also used for flow cytometry analysis for live, apoptotic and dead cells using annexin V conjugated to green-fluorescent FITC dye and propidium iodide (PI). Propidium iodide stains necrotic cells with red fluorescence whereas green FITC dye stains apoptotic cells.
# We treated Panc-1 pancreatic cancer cells with either purified crocetin or PC (fraction 5 of FIG. 2A) derived from alkaline treatment or crude commercial crocetin or CC (1 and 10 μM concentrations) for 48-72 hours. We have also used higher doses (25, 50 and 100 μM) in this experiment and it needs about 50-100 concentration of CC for inhibition of proliferation and increase of apoptosis at the level of 1 and 10 μm of PC. Treated cells were then labeled with Brdu and cells were assayed by Invitrogen Click-it Edu fluorimetric microplate proliferation kit and apoptosis assay kit.
# BxPc3 cells [3] = test: Proliferation assay in BxPC3 cells; format: cell-based, human; conditions: comparison to commercial crocetin
# Protocol: as §1
# BxPc3 cells [4] = test: Apoptosis assay in BxPC3 cells; format: cell-based, human; conditions: comparison to commercial crocetin
# Protocol: as §2
# Panc-1 cells [5] = test: Migration of Panc-1 cells in Bowden chamber; format: cell-based, human; conditions: 1 and 10 μM, 24 hours, compared with CC
# Protocol: FIG. 4A illustrates effect of purified crocetin (PC) and crude crocetin (CC) on migration of Panc-1 cells. Panc-1 cells were incubated with PC and CC at concentrations of 1 and 10 μM in Bowden chamber for 24 hours and migration was studied.
# EGFR [6] = test: Western blot of EGFR (phosphorylated and total) in Panc-1 cells; format: cell-based, human; parameters: dose or concentration left out as unconfirmed; conditions: Panc-1, compared with CC
# Protocol: (§3) FIG. 4B illustrates effect of purified crocetin (PC) and crude crocetin (CC) on EGFR (epidermal growth factor receptor), Akt signaling and Bax/Bcl-2 on Panc-1 cells.
# (§4) The immuno-Western blot analyses were the same as described earlier by Banerjee et al. (Reference 26). Briefly, MIA-PaCa-2 and BxPC-3 cells following treatment with or without crocetin and tumor samples were homogenized. Then, both cell and tumor lysates were spun at 18000 g for 1 hr at 4° C., and the supernatants were collected for immunodetection. Protein concentration was measured by using the Comassie blue reagent assay (Pierce, Rockford, Ill.). Equal amount of protein were resolved in 10% SDS-PAGE, transferred onto nitrocellulose membranes. Membranes were blocked with super block (Pierce, Rockford, Ill.) followed by incubation with appropriate primary antibodies at 4° C., overnight. The antigen-antibody reactions were detected with HRP-conjugated anti-rabbit or anti-mouse IgG for one hour in room temperature. Immunoreactions were visualized by the ECL ([…]) chemiluminescence reagent kit (Pierce, Rockford, Ill.) and relative expression of proteins were calculated by densitometric analyses using ID image Analysis Software version 3.6 (Eastman Kodak Company, Rochester, N.Y.).
# Akt = test: Western blot of Akt signaling in Panc-1 cells; format: cell-based, human; conditions: 10 mM, listed as PC
# Protocol: as §3, §4
# Bax/Bcl-2 = test: Western blot of Bax/Bcl-2 in Panc-1 cells; format: cell-based, human; conditions: Panc-1, Western blot
# Protocol: as §3, §4
# [7] = system: pancreatic CSCs (pancospheres); test: Pancospheroid formation assay; format: cell-based; conditions: dose dependent, 0, 1, 5, 10, 20 μM
# Protocol: FIG. 7C illustrates spheroid formation assay. Stemness pancreatic cancer cells ware determined using spheroid assay in PC versus CC in different concentrations (0, 1, 5, 10, 20 μM); and
# Spheroids were prepared as previously described (Reference 17). Briefly, 1000 cells/well in DMEM/F12 (Invitrogen, France) supplemented with EGF (20 ng/ml, Invitrogen) and B27 (1×, Invitrogen) were distributed in ultra-low attachment plates 6 well plates. Plates were placed in a humidified atmosphere of 5% CO2 at 37° C. Numbers of pancosphers formation, after 6-8 days culture, were counted under a light microscopy and quantified by Celigo software.
# [8] = system: Sonic Hedgehog signaling pathway; test: Western blot of Sonic Hedgehog signaling pathway proteins and target genes; format: cell-based
# Text: FIG. 7A illustrates western blots of onic Hedgehog signaling pathways proteins (sonic hedgehog, Gli-1, SUFU, Smoothened with beta-actin) expressions in treated lanes of I (CC), 2 (PC #5), 3 (PC #3) and 4 (PC #1).
# FIG. 7B illustrates sonic hedgehog target genes: Patched, p21, cyclin D1 with actin treated by CC (Lane 1) and PC #5 (Lane 2), PC #3 (Lane 3) and PC #1 (Lane 4).
# as §4
# DCLK-1 = test: Western blot of DCLK1 expression; format: cell-based, human; parameters: dose or concentration left out as unconfirmed; conditions: Mia-PaCa2 cells
# Protocol: FIG. 7D illustrates DCLK1 expression. Western blot analysis of DCLK1 after treatment of Mia-PaCa2 cells treated with 10 mM of CC and PC of #5, #3 and #1 HPLC fractions.
# as §4
# [9] = system: MIA-PaCa-2 xenograft tumor; test: Pancreatic cancer xenograft tumor growth in athymic nude mice; format: in vivo; conditions: 0.5 mg/kg, oral, 0 to 21 days, in comparison to control
# Protocol: FIG. 5 illustrates pancreatic cancer xenograft tumor growth in athymic (nude) mice. […] The tumor size was measured (right) from the start date of crocetin treatment (0 day) to end date of crocetin treatment (21 days) in comparison to control (no treatment). Number of animals is 5 in the control and treated group;
# MIA-PaCa-2 cells (2.5×10^6) were injected into the right hind leg of each mouse for the development of tumor. The mice were divided into two groups (6 mice per group) with a control group and crocetin treatment group. After development of palpable tumor, the tumor size was measured twice in a week. When tumors are well established (approximately 0.34 cm^3); treatment was started. The treatment group received crocetin at 0.5 mg/kg/day orally dissolved in 15 ml of peptamen for 12 hours during dark for 30 days and the dose is in agreement with other investigators (References 14, 17, 20 and 27). Tumor size was monitored twice weekly, and its volume calculated as […], where a=length and b=width. Control group received only peptamen. The mice were given solid food during light time following liquid peptamen diet at dark. All mice were sacrificed after 30 days following treatment and tumors were taken out and stored at −80° C. […]
# PCNA = PCNA histochemical analysis of xenograft tumor tissue; format: in vivo, athymic (nude) mice; conditions: versus untreated
# Protocol: FIG. 6A illustrates expression of PCNA (proliferating cell nuclear antigen). Cell proliferation in tumor tissues, obtained from athymic mice as depicted in FIG. 5, was evaluated by staining for PCNA using histochemical analysis.
# Immunohistochemical analysis was performed according to our previous described method (27) using Zymed broad range immunohistochemical kits (Zymed Laboratories, CA). Tumor tissue samples were fixed in 4% buffered formalin and embedded in paraffin. The serial sections of 5 μm were cut. The tissue sections were deparaffinized and were hydrated in different concentrations of ethanol (i.e. 100%, 90%, 70%, and 50%). Endogenous peroxidase activity was blocked at room temperature by incubating in hydrogen peroxide in methanol (1:9). Slides were washed with PBS (phosphate buffered saline) and nonspecific binding was blocked by blocking solution for 10 min. The sections were incubated with respective primary antibody in a humidified chamber at 4° C. overnight. The tissues were incubated with biotynylated secondary antibody (Zymed kit). The slides were then incubated with HRP (horseradish peroxidase) linked enzyme conjugate for 10 min. Positive reactions were visualized by incubating slides with stable 3,3′-diaminobenzidine (DAB) solution (Zymed kit) and counterstained with haematoxylin. The slides were dehydrated and mounted in permount for microscopic examination.
# [10] = system: MIA-PaCa-2 xenograft tumor; test: Apoptosis in xenograft tumors (cleaved caspase 3, TUNEL, Bax/Bcl-2); format: in vivo, athymic (nude) mice
# Protocol: FIG. 6C illustrates apoptosis. Top, tumor tissues were processed for Cleaved Caspase 3 immunohistochemistry. […] Caspase 3, Bax and Bcl-2 (middle) expressions of pancreatic tumors from same crocetinic acid-treated and control animals using Western Blot were carried out and Bax/Bcl-2 ratio was also determined (bottom). Columns, mean from six different animals; bars, SD (B and C). *, P<0.05; **, P<0.001 versus untreated control (Student's t test);
# To explore whether the regression of tumor growth by crocetin is due to inhibition of proliferation, apoptotic cell death or both, we first evaluated PCNA (proliferating cell nuclear antigen) expression and then EGFR expression in tumors using histochemical analysis. […] Next, apoptosis by TUNEL assay was investigated in the tumors of mice treated with or without crocetin.
# pancreatic cancer cells = test: Cytotoxicity against pancreatic cancer cells; format: cell-based; conditions: dose- and time-dependent
# Protocol: The human pancreatic adenocarcinoma cell lines MIA-PaCa-2, BxPC3, Capan-1 and ASPC-1 were obtained from the American Type Culture Collection (ATCC, Manassas, Va., USA) and grown in Dulbecco's modified Eagles medium (DMEM, Sigma Chemical Co, St Louis, Mo.) supplemented with 1 mM sodium pyruvate (Fisher Chemical Company), 100 U/ml of penicillin and 100 U/ml of streptomycin (Sigma Chemical Co, St Louis, Mo.) and 10% FBS (Hyclone, Road Logan, Utah) at 37° C. in a humidified tissue culture incubator containing 5% CO2 and 95% air. ˜70% confluent cells were treated with different concentrations (1-50 μM) of purified crocetinic acid and commercial crocetin for 72 h.
# human cells = conditions: cited from earlier work
# EGFR [11] = test: EGFR expression and phosphorylation in xenograft tumors (immunohistochemistry, Western blot); format: in vivo, athymic (nude) mice
# Protocol: FIG. 6B illustrates expression of EGFR and Akt. Tissue sections were obtained from human pancreatic cancer tumors growing in nude mice as described in FIG. 5, and stained for pEGFR and pAkt as described in Materials and Methods section (below). Middle, EGFR and Akt expression of pancreatic tumors from same crocetinic acid-treated and untreated control animals using Western Blot as described in FIG. 4B, was determined. Phophorylated (p-EGFR) and total protein of EGFR and phophorylated Akt and total Akt expressed as ratio between them normalized with b-actin was shown (bottom);
# as §4, with “Then, both cell and tumor lysates were spun at 18000 g for 1 hr at 4° C., and the supernatants were collected for immunodetection.” left out, “Equal amount of protein were resolved in 10% SDS-PAGE, transferred onto nitrocellulose membranes. Membranes were blocked with super block (Pierce, Rockford, Ill.) followed by incubation with appropriate primary antibodies at 4° C., overnight.” left out, “N.Y.). […]” for “N.Y.).”
# [12] = in vivo; cited from earlier work
# [13] = in comparison to commercial crocetin
compound,measurement,setting,value
CC(C=CC=C(C)C(=O)O)=CC=CC=C(C)C=CC=C(C)C(=O)O [crocetinic acid],inhibition in proliferation,"Panc-1 cells [1]; 1 µM, compared with CC",highly potent inhibition
same,potency in proliferation assay relative to crude crocetin,Panc-1 cells [1]; listed as #5,50 times
same,potency in proliferation assay relative to crude crocetin,Panc-1 cells [1]; listed as PC,50 times
same,potency in proliferation assay relative to crude crocetin,Panc-1 cells [1]; listed as purified crocetin,about 50 times
same,inhibiting proliferation,Panc-1 cells [1],significantly inhibited
same,inhibiting proliferation,Panc-1 cells [1]; listed as #5,promising effect
same,apoptosis,"Panc-1 cells [2]; 1 µM, compared with CC",increase
same,potency in apoptosis assay relative to crude crocetin,Panc-1 cells [2]; listed as #5,50 times
same,potency in apoptosis assay relative to crude crocetin,Panc-1 cells [2]; listed as PC,50 times
same,potency in apoptosis assay relative to crude crocetin,Panc-1 cells [2]; listed as purified crocetin,about 50 times
same,stimulating apoptosis,Panc-1 cells [2],stimulated apoptosis
same,stimulating apoptosis,Panc-1 cells [2]; listed as #5,promising effect
same,apoptosis by flow cytometry and fluorescence microscopy,Panc-1 cells [2]; lower doses,significant increase
same,inhibition of proliferation,BxPc3 cells [3],significantly inhibited
same,stimulation of apoptosis,BxPc3 cells [4],stimulated apoptosis
same,migration,Panc-1 cells [5],significantly inhibited
same,EGFR phosphorylation,EGFR [6],significantly inhibited
same,Akt expression and phosphorylation,Akt,significantly inhibited
same,Bax/Bcl-2 ratio,Bax/Bcl-2,increase
same,Bcl-2,Bax/Bcl-2,decrease
same,number and size of primary and secondary pancospheres (spheroid formation),[7],decreased
same,number and size of primary and secondary pancospheres (spheroid formation),[7]; listed as #5,significant inhibition
same,Gli1 expression,[8]; Western blot,inhibited
same,SUFU expression,[8]; Western blot,inhibited
same,smoothened expression,[8]; Western blot,inhibited
same,cyclin D1 expression,"[8]; Western blot, target protein",inhibited
same,patched expression,[8]; [13],increased expression
same,sonic hedgehog (Shh) expression,[8]; [13],significantly inhibited
same,patched expression,"[8]; in comparison to commercial crocetin, listed as 5",increased
same,DCLK-1 expression,DCLK-1,significantly inhibited
same,DCLK-1 expression,DCLK-1; listed as 5,reduction
same,tumor growth,[9],significantly inhibited
same,PCNA expression in tumors,PCNA,significantly decreased
same,apoptosis by cleaved caspase 3 immunohistochemistry in tumors,"[10]; daily treatment, versus vehicle",Increased apoptosis
same,cytotoxicity,pancreatic cancer cells,significant cytotoxicity
same,toxicity to human cells,human cells,relatively nontoxic
CC(/C=C/C=C(\C)C(=O)O)=C\C=C\C=C(C)\C=C\C=C(/C)C(=O)O [crocetin],EGFR activity (ratio of phosphorylated and unphosphorylated form) in tumors,EGFR [11],significantly impaired
same,EGFR expression and phosphorylation in tumors,EGFR [11]; versus untreated,significantly reduced
same,ratio of Bax/Bcl-2 in pancreatic tumors,"[10]; xenograft tumors, Western blot",significantly increased
same,TUNEL assay positive cells in tumors,"[10]; xenograft tumors, versus untreated",elevated markedly
same,LD50,[12],2000 mg/kg
